According to patent US12447145B2, “Compositions and methods for treating inflammatory neurological disorders” (Georgetown University, priority 2018, dated 2025):

Key:
[1] = test system: CNS lesions (lysolecithin-induced focal demyelination); assay: Lysolecithin-induced focal demyelination of the spinal cord, immunohistochemistry of lesions; assay type: in vivo, mice
Procedure: Focal demyelination was induced by injecting 1% lysolecithin (Sigma-Aldrich) into the spinal cord ventral funiculus of 8-12 weeks old C57B1/6 mice of either sex. At 5 and 10 days post lesion (dpl), mice were perfused intracardially with 4% (w/v) paraformaldehyde (PFA; Sigma). To perform IHC, mice were perfusion-fixed with 4% PFA (Sigma). Spinal cords were dissected and postfixed for 30 min in 4% PFA at 4° C. and cryoprotected in 20% (w/v) sucrose (Sigma) in PBS overnight before freezing in O.C.T. on the surface of dry ice. Twelve-micrometer-thick spinal cord sections were cut using cryostat (Leica CM1900), collected on SuperFrostPlus slides (VWR International), and allowed to dry for 30 min before storing at −80° C. For IHC, sections were incubated in blocking solution (0.1% Triton™ X-100 and 10% FBS in PBS) for 1 h at room temperature (RT). Primary antibodies were diluted in blocking solution and applied overnight at 4° C. Fluorescent dye-conjugated secondary antibodies were obtained from Life Technologies and used according to the manufacturer's instruction. Focal demyelination was induced by injecting 1% lysolecithin, JPH203 or PBS control was injected via intraperitoneal from 5-9 dpl. Mice were sacrificed at 10 dpl by intracardial perfusion with 4% PFA (Sigma). IHC was performed as previously described. Twelve-micrometer-thick fixed spinal cord sections were cut using cryostat (Leica CM1900), collected on SuperFrostPlus slides (VWR International), and allowed to dry for 30 min before storing at −80° C. For IHC, sections were incubated in blocking solution (0.1% Triton™ X-100 and 10% FBS in PBS) for 1 h at room temperature (RT). Primary antibodies were diluted in blocking solution and applied overnight at 4° C. Sources and dilutions of primary antibodies were as follows: rabbit anti-Olig2 (1:300; Millipore), mouse anti-CC1 (1:200; Sigma). Fluorescent dye-conjugated secondary antibodies were obtained from Life Technologies and used according to the manufacturer's instruction. Antigen retrieval was used for Olig2 and mouse on mouse antigen retrieval with M.O.M.™ kit (Vector Laboratories) for CC1. DAPI nuclear counterstain was used before mounting sections with fluoromount-G (Southern-Biotech). ImageJ (NIH) was used to quantify Olig2+ CC1+ cells.

EAE mice = assay: Experimental autoimmune encephalomyelitis (EAE) mouse model, clinical scoring; assay type: in vivo, C57BL/6 female mice
From the text: C57BL/6 female mice (Charles River) at age 10-12 weeks were acclimatized for 7 days prior to inducing experimental autoimmune encephalomyelitis (EAE). EAE was induced using the EAE kit (Hooke Laboratories, Cat. No: EK-2110) according to the Hooke Laboratories protocol (on the world wide web at hookelabs.com/protocols/eaeAI_C57BL6.html). Briefly, mice were immunized by an emulsion of MOG35-55 in complete Freund's adjuvant (CFA) injected subcutaneously at two sites (Day 0), followed by administration of pertussis toxin (PTX) intraperitoneally, first on the day of immunization (Day 0), and then again the following day (Day 1). Approximately 115 ng of PTX for each of the two PTX administrations were used.
The mice were scored blindly and daily from EAE Day 7 until at least EAE Day 30 according to the protocol from Hooke Laboratories. The scoring system used was as follows: 0.0=no obvious changes in motor function; 0.5=tip of tail is limp; 1.0=limp tail; 1.5=limp tail and hind leg inhibition; 2.0=limp tail and weakness of hind legs or signs of head tilting; 2.5=limp tail and dragging of hind legs or strong head tilting; 3.0=limp tail and complete paralysis of hind legs or limp tail with paralysis of one front and one hind leg; 3.5=limp tail and complete paralysis of hind legs plus mouse unable to right itself when placed on its side; 4.0=limp tail, complete hind leg and partial front leg paralysis, mouse is minimally moving but appears alert and feeding; 4.5=complete hind and partial front leg paralysis, no movement around the cage, mouse is not alert; 5.0=mouse is found dead due to paralysis or mouse is euthanized due to severe paralysis
The clinical scores and weight of mice were recorded daily until the end of experiment. […] For each experiment, 8 to 10 mice from each group were analyzed.
EAE mice were treated with L-type amino acid transporter 1 (LAT1) inhibitor JPH203 dihydrochloride starting at scores 1.0 and 3.0. […] Clinical scores of the animals from each group were recorded at 1-7 days after the first injection.

With `Nc1cc(COc2c(Cl)cc(C[C@H](N)C(=O)O)cc2Cl)c2oc(-c3ccccc3)nc2c1` [JPH203, (S)-2-Amino-3-(4-((5-amino-2-phenylbenzo[d]oxazol-7-yl)methoxy)-3,5-dichlorophenyl) propanoic acid] as the molecule, how does the “macrophage morphology in lesion at higher magnification” value ([1]; 10 dpl, control lesion macrophages rounded amoeboid/foamy, FIG. 3F/3G) read?
Its value is “more ramified appearance, indicating reduced inflammatory activity”.

What about the “iNOS labeling of macrophages at higher magnification” value ([1]; 10 dpl, versus control lesion, FIG. 3F/3G) of the same molecule?
Its value is “very little iNOS labeling”.

What about the “number of mature oligodendrocytes in lesions” value ([1]; intraperitoneal injection 5-9 dpl, analysis at 10 dpl, compared to PBS control, FIG. 3A/3B) of the same molecule?
The value was “increased number of mature oligodendrocytes in lesions”.

And the “increase in oligodendrocytes (Olig2+ CC1+ cells), quantification” value ([1]; intraperitoneal injection 5-9 dpl, analysis at 10 dpl, versus PBS control, FIG. 3C, P<0.05)?
The value was 2 fold.

And the “pro-inflammatory iNOS expression in lesion (Iba1+iNOS+ microglia/macrophages)” value ([1]; intraperitoneal injection 5-9 dpl, analysis at 10 dpl, versus PBS treated lesion, FIG. 3D/3E)?
Its value is “dramatically reduced pro-inflammatory iNOS expression”.

And the “progression of EAE to higher scores” value (EAE mice; prophylactic treatment starting at score 1.0, PBS controls progressed to score 3.0 or higher, FIG. 2B)?
The value was “prevented progression of EAE to higher scores”.

What about the “motor recovery (clinical score), prophylactic efficacy” value (EAE mice; treatment starting at clinical score 1.0, 25 mg/kg intraperitoneal daily for 5 days, compared to PBS control, FIG. 2B) of the same molecule?
Its value is “motor recovery”.

And the “motor recovery (clinical score), treatment efficacy” value (EAE mice; treatment starting at clinical score 3.0, 25 mg/kg intraperitoneal daily for 5 days, compared to PBS control, FIG. 2A)?
Its value is “motor recovery”.
